Measured values reported in patent US12680074B2, “Antigen presenting T cells, sensitized, manufactured T cells and methods of treatment using the same” (RAPA THERAPEUTICS, LLC, priority 2020, dated 2026).

Key:
[1] = system: pancreatic cancer cell line MIA PaCa-2 and lung cancer cell line H23; experiment: Example 9 sensitization of manufactured T cells by lysate of etoposide-treated tumor cells, cytokine re-stimulation read-out (FIG. 37); format: cell-based, human
Method: Manufactured T cells for this and all of the following examples were produced by the following procedure: peripheral blood apheresis PBMC product was subjected to Ficoll gradient centrifugation and the resultant cells were plated at 15×10^6 cells/mL; at culture initiation, temsirolimus was added at a final concentration of 2 μM and basiliximab was added at a final concentration of 30 μg/mL; after 24 hours of culture, IFN-α was added to achieve a final concentration of 20,000 IU/mL; no other cytokines were added; no co-stimulation was provided; the manufactured T cells were harvested on day 6 of culture for further use.
The pancreatic cancer cell line MIA PaCa-2 and the lung cancer cell line H23 were treated for 72-hours with etoposide, an inducer of immunogenic cell death, at concentrations of 0.5, 5.0 and 50 μM. Briefly, a cell concentration of 5×10^6 tumor cells/mL was utilized to generate 100 μL of lysate, which was then used to directly stimulate manufactured T cells. That is, there was no separate T cell APC manufacturing step used for this experiment (lysate added directly to effector T cells). The tumor cell lysate was then added to manufactured T cells which were expanded in X-Vivo 20 media containing IL-2 (100 IU/mL), IL-7 (10 ng/mL), and IL-15 (10 ng/mL).

TBET = experiment: Intra-cellular TBET expression at day 6 of ex vivo T cell culture (FIG. 1B); format: cell-based
Method: (§1) T cells were cultured ex vivo, as indicated, using various ratios of anti-CD3, anti-CD28 beads to T cells (1:1 or 1:12); the mTOR inhibitor temsirolimus (1 μM); without or with the anti-IL-2 receptor monoclonal antibody daclizumab (5 or 50 μg/ml); and either Th1 polarization cytokines (IFN-alpha; 10,000 IU/ml) or control regulatory T cell polarization (IL-2 plus TGF-β). At day 6 of culture, the T cells were evaluated for intra-cellular expression of the regulatory T cell transcription factor FoxP3 and the Th1 transcription factor TBET. (FIGS. 1A-1B).

phospho-RAPTOR = experiment: Western blot of phospho-RAPTOR after 16-hr pre-incubation (FIG. 12); format: cell-based, human; details: high-dose temsirolimus compared to low-dose temsirolimus or high-dose rapamycin
Method: (§2) For FIGS. 11-13, human CD4^+ and CD8^+ T cells were cultured using a 16-hr pre-incubation interval prior to the addition of 3/28 beads at the reduced ratio of 1:3 beads-to-T cells. As indicated in FIGS. 11-13, the various T cell cultures received different methods of mTOR inhibition (rapamycin at 1.0 μM; temsirolimus at 1.0 or 0.1 μM), different conditions of exogenous IL-2 addition, and different conditions relative to addition of the anti-IL-2 receptor monoclonal antibody, daclizumab. After the 16-hr pre-incubation interval, cells were harvested from the T cell cultures, protein was isolated, and p62 (FIG. 11), phospho-RAPTOR (FIG. 12), or BIM (FIG. 13) and the housekeeper gene β-actin were quantified by western blot.

p62 = experiment: Western blot of p62 after 16-hr pre-incubation (FIG. 11); format: cell-based, human
Method: as §2

FoxP3 = experiment: Intra-cellular FoxP3 expression at day 6 of ex vivo T cell culture (FIG. 1A); format: cell-based
Method: as §1

[2] = system: IFN-γ and TNF-α secretion by CD4+ and CD8+ T cells; experiment: Day 6 / day 13 cytokine secretion after 3:1 3/28 bead co-stimulation, Luminex (FIGS. 3A-3B); format: cell-based
Method: To evaluate this, we tested cytokine secretion potential of the manufactured T cells at the end of cell culture (day 6) and then again one week after ex vivo expansion after maximal co-stimulation (3/28 bead-to-T cell ratio, 3:1) and propagation in media devoid of any inhibitors. In FIGS. 3A-3B, CD4^+ and CD8^+ T cells were purified and cultured for 6-days either with or without a 16-hr interval of pre-incubation prior to co-stimulation (1:1 ratio of 3/28 beads-to-T cells). As indicated, temsirolimus was added at concentrations of either 1.0 or 0.1 μM; all cultures were supplemented with IFN-α (10,000 IU/ml) and daclizumab (50 μg/ml). On day 6 of culture, the resultant T cells were co-stimulated for 24 hr using a 3:1 ratio of 3/28 beads; the supernatant was tested for cytokine content by Luminex assay (results are described as pg per ml of cytokine secreted per million cells per 24 hr). […] N.A, abbreviation indicates not applicable (insufficient T cell yield to perform assay).

[3] = temsirolimus plus daclizumab under TREG-permissive conditions: bead ratio 1:12, no IFN-α, exogenous IL-2 plus TGF-β

`COc1cc([C@@H]2c3cc4c(cc3[C@@H](O[C@@H]3O[C@@H]5CO[C@@H](C)O[C@H]5[C@H](O)[C@H]3O)[C@H]3COC(=O)[C@H]23)OCO4)cc(OC)c1O` [etoposide] was tested, and the “sensitizing manufactured T cells to cytokine secretion in response to repeat exposure to lysate” value ([1]; 72-hour incubation of MIA PaCa-2 or H23 with etoposide 0.5 to 5.0 μM) was “effective” and the T cell sensitization ([1]; etoposide at the higher concentration of 50 μM) was “not effective”.

With `CO[C@H]1C[C@@H]2CC[C@@H](C)[C@@](O)(O2)C(=O)C(=O)N2CCCC[C@H]2C(=O)O[C@H]([C@H](C)C[C@@H]2CC[C@@H](OC(=O)C(C)(CO)CO)[C@H](OC)C2)CC(=O)[C@H](C)/C=C(\C)[C@@H](O)[C@@H](OC)C(=O)[C@H](C)C[C@H](C)/C=C/C=C/C=C/1C` [temsirolimus] the “expression of TBET” value (TBET; combination of temsirolimus and an anti-IL-2 receptor monoclonal antibody) was “increased expression of TBET”, the “phosphorylated form of RAPTOR” value (phospho-RAPTOR) was “lower levels of phospho-RAPTOR” and the “autophagy marker p62” value (p62; pre-incubation, 1:3 beads, daclizumab, rapamycin 1 μM or temsirolimus 1.0 or 0.1 μM) was “autophagy could be realized”. The FoxP3 expression (FoxP3; exogenous IL-2 added in combination with IFN-α) was “not effective”, the “T cell expression of FoxP3” value (FoxP3; temsirolimus 1.0 μM with IFN-α, relative to day 0 input T cell population) was “reduced” and the FoxP3 expression (FoxP3; [3]) was “not effective”. For the same molecule, the “day 13 T cell IFN-γ and TNF-α secretion” value ([2]; pre-incubation plus high-dose temsirolimus, after one week without inhibitors) was “highest”, the “day 6 T cell cytokine secretion potential” value ([2]; temsirolimus 0.1 μM) was “only partially reduced” and the “day 6 T cell IFN-γ and TNF-α secretion after 24 hr of maximal co-stimulation” value ([2]; temsirolimus 1.0 μM, with or without overnight pre-incubation) was “very low levels”.

B1: daclizumab: anti-IL-2 receptor monoclonal antibody (antibody, chains of the INN, looked up, V domains shown)
VH: QVQLVQSGAEVKKPGSSVKVSCKASGYTFTSYRMHWVRQAPGQGLEWIGYINPSTGYTEYNQKFKDKATITADESTNTAYMELSSLRSEDTAVYYCARGGGVFDYWGQGTLVTVSS
VL: DIQMTQSPSTLSASVGDRVTITCSASSSISYMHWYQQKPGKAPKLLIYTTSNLASGVPARFSGSGSGTEFTLTISSLQPDDFATYYCHQRSTYPLTFGQGTKVEVK
B1 was tested, and the “TBET expression, dose response” value (TBET; 50 μg/ml versus 5 μg/ml) was “higher degree”, the “autophagy marker p62” value (p62; IL-2 receptor blockade eliminated from the regimen) was “substantially blunted the induction of autophagy” and the “FoxP3 expression, dose-response” value (FoxP3; antibody at 50 μg/ml versus 5 μg/ml) was “more effective”. The FoxP3 expression (FoxP3; blockade of the IL-2 receptor added to temsirolimus and IFN-α) was “further reduced” and the FoxP3 expression (FoxP3; [3]) was “not effective”.
